Columns and labels:
Nt-hMLKL^F148A = target: T1, Nt-hMLKL^F148A (Homo sapiens, UniProt Q8NB16, F148A); experiment: SPR binding to Nt-hMLKL F148A mutant; details: versus Nt-hMLKL
T1 construct: an N-terminal domain (Nt-hMLKL, amino acids 2–154, MW: 23 kDa) involved in oligomerization; His (N); made in house; host or cells: E. coli BL21
Text: The hMLKL plasmid (RC213152, OriGene, Rockville, MD, USA), and recombinant Wt-hMLKL (ab241453, Abcam) and Wt-mMLKL (MBS1379843, MyBioSource, San Diego, CA, USA) proteins were purchased. Nt-hMLKL (2–154), Nt-mMLKL (1–180), and Ct-hMLKL (183–471) were generated using the pBT7-N-His vector. Nt-hMLKL^C86A, Nt-hMLKL^F148A, -hMLKL^C86A/L89A/D94A, and Nt-hMLKL^R145A/R146A/F148A/M150A were generated using the Site-directed Mutagenesis Kit (EZ004S, Enzynomics, S. Korea). These constructs were subcloned into pBT7-N-His and pET-15b plasmid vectors. E. coli BL21 cells transformed with the cloned expression vectors were cultured in LB medium and supplemented with 100 μg/mL ampicillin until an OD at 600 nm of 0.5–0.6 was reached. The cultures were induced by 1 mM IPTG (367-93-1, Sigma-Aldrich). The cells were lysed and centrifuged. The clear supernatants were subjected to Ni-NTA affinity chromatography (175018169, QIAGEN, Hilden, Germany). Plasmids encoding mMLKL (1–464)–gyrase fusion constructs were kindly provided by Prof. […]
The interactions of Wt-hMLKL, Wt-mMLKL, Nt-mMLKL, Nt, and Ct-hMLKL proteins with Re-APO or Ox-APO were detected through SPR analysis using Biacore™ T200 (Cytiva, Marlborough, MA, USA). […] Sensorgrams were recorded and analyzed in real-time using the control software in the BIAcore T200 system. All data were analyzed using the BIA evaluation software (Cytiva).

p-MLKL and p-RIP1 = experiment: Western blot of cytosol and membrane fractions; format: cell-based, human; details: THP-1, TBZ, 20 μM
Protocol: The cells were harvested and lysed in 1× RIPA buffer (R4100-010, GenDEPOT, Katy, TX, USA) containing protease (P3100-001, GenDEPOT) and phosphatase (1862495, Thermo Fisher Scientific) inhibitors. WCLs were then centrifuged at 20,000×g for 30 min at 4 °C and subjected to non-reducing or reducing 8–12% SDS-PAGE gel electrophoresis. The membrane was blocked with 5% non-fat milk in TBS and probed with antibodies. Antibodies to hMLKL (14993S), mMLKL (97705S), phospho-hMLKL (Ser358) (91689S), phospho-mMLKL (Ser345) (37333S), phospho-hRIP1 (Ser166) (65746S), mRIP1 (3493S), phospho-mRIP1 (Ser321) (38662S), phospho-hRIP3 (Ser227) (93654), mRIP3 (95702S), p-mRIP3 (Thr231/Ser232) (91702S), and LDH (2012S) (Cell Signaling Technology, Danvers, MA, USA), and GAPDH (LF-PA0018, Abfrontier, S. Korea), hRIP1 (ab72139, Abcam, Cambridge, UK), hRIP3 (sc-135170, Santa Cruz Biotechnology, Dallas, TX, USA), HMGB1 (ab78923, Abcam), and LAMP1 (ab24170, Abcam) antibodies were used.
Cell membrane fractionation was performed to determine whether MLKL oligomers were retained in the cell membrane fraction. Briefly, THP-1 cells were harvested and resuspended in 20 mM TBS (pH 7.4) containing 10 mM KCl, 1 mM MgCl2, protease inhibitor (P3100-001, GenDEPOT), and phosphatase inhibitor (1862495, Thermo Fisher Scientific). The cell suspension was passed through a 22-gauge needle and centrifuged at 20,000×g for 15 min and stored as the cytoplasmic fraction. The pellet was resuspended in lysis buffer and stored as the crude membrane fraction.
Fig. S1 Assessment of p-MLKL inhibition to identify MLKL-targeting molecules. (A) Quantification graph corresponding to Fig. 1C. THP-1 cells were treated with TBZ in the presence of secondarily selected compounds (S1–S72, 20 μM). Whole-cell lysates (WCLs) were collected and subjected to Western blot analysis under reducing conditions using antibodies against p-MLKL, MLKL, and GAPDH. The p-MLKL/MLKL ratio was quantified and compared to that of TBZ-treated cells. Data represent the mean of three independent experiments. (B) Quantification graph corresponding to Fig. 1D. THP-1 cells were treated with TBZ in the presence of third-round selected compounds (S1–S62, 20 μM). Cytosolic and membrane fractions were collected and analyzed by Western blot under reducing conditions. The levels of p-MLKL and p-RIP1 were normalized to LDH (cytosolic marker) and LAMP1 (membrane marker), respectively. Quantified ratios were compared to those of TBZ-treated cells (n = 3 independent experiments).

T1 sequence (Q8NB16 2-154 F148A): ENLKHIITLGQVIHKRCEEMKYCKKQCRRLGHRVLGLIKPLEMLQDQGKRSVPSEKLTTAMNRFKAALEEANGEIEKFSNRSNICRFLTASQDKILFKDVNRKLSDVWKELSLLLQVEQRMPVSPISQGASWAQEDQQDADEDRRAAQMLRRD

| SMILES | fold weaker binding of single mutant (Nt-hMLKL^F148A) | p-MLKL levels in the cytosolic fraction (p-MLKL and p-RIP1) | p-MLKL levels in the membrane fraction (p-MLKL and p-RIP1) |
| --- | --- | --- | --- |
| CN1CCc2cccc3c4c(cc1c23)C=CC(=O)C4=O [Ox-APO] | ~ 10 fold | – | – |
| CN1CCc2cccc3c2[C@@H]1Cc1ccc(O)c(O)c1-3 [S62, (6aS)-6-methyl-5,6,6a,7-tetrahydro-4H-dibenzo[de,g]quinoline-10,11-diol] | – | little or moderate inhibition | significantly inhibited |

Reference: PMC12518639, “Apomorphine is a novel necroptosis inhibitor targeting mixed lineage kinase domain-like protein oligomerization” (Cell Death Discovery, 2025)
